Structures can show the parent of a compound that is named as a salt.
melting point	SMILES
240 to 242 °C	COc1cc(Cl)ccc1-c1cc2c(=O)n(-c3ccc4c(cnn4CCN4CCCC4)c3)ccc2o1.Cl
102 to 104 °C	Cl.O=c1c2cc(-c3ccccc3Cl)oc2ccn1-c1ccc2c(cnn2CCN2CCCC2)c1
120 to 122 °C	Cl.N#Cc1cc(F)ccc1-c1cc2c(=O)n(-c3ccc4c(cnn4CCN4CCCC4)c3)ccc2o1
140 to 142 °C	Cl.O=c1c2cc(-c3ccc(F)cc3Cl)oc2ccn1-c1ccc2c(cnn2CCN2CCCC2)c1
256 to 258 °C	Cl.O=c1c2cc(-c3ccc(Cl)cc3F)oc2ccn1-c1ccc2c(cnn2CCN2CCCC2)c1
218 to 220 °C	Cl.O=c1c2cc(-c3ccc(F)cc3)oc2ccn1-c1ccc2c(cnn2CCN2CCCC2)c1
252 to 254 °C	Cl.O=c1c2cc(-c3ccc(C(F)(F)F)cc3)oc2ccn1-c1ccc2c(cnn2CCN2CCCC2)c1
264 to 266 °C	Cl.O=c1c2cc(-c3ccccc3F)oc2ccn1-c1ccc2c(cnn2CCN2CCCC2)c1
256 to 258 °C	Cl.O=c1c2cc(-c3ccc(F)cc3F)oc2ccn1-c1ccc2c(cnn2CCN2CCCC2)c1
268 to 270 °C	Cc1ccc(-c2cc3c(=O)n(-c4ccc5c(cnn5CCN5CCCC5)c4)ccc3o2)c(F)c1.Cl
262 to 264 °C	Cc1ccc(-c2cc3c(=O)n(-c4ccc5c(cnn5CCN5CCCC5)c4)ccc3o2)cc1.Cl
282 to 284 °C	Cc1ccc(-c2cc3c(=O)n(-c4ccc5c(cnn5CCN5CCCC5)c4)ccc3o2)nn1.Cl
260 to 268 °C (dec.)	Cl.O=c1c2cc(-c3ccc(Cl)cc3)oc2ccn1-c1ccc2c(cnn2CCN2CCOCC2)c1
298 to 300 °C (dec.)	Cl.O=c1c2cc(-c3ccc(Cl)cc3)oc2ccn1-c1ccc2c(cnn2CCN2CCNCC2)c1
242 to 246 °C (dec.)	Cl.O=c1c2cc(-c3ccc(Cl)cc3)oc2ccn1-c1ccc2c(cnn2CCN2CC[C@@H](O)C2)c1
258 to 260 °C	Cl.O=c1c2cc(-c3ccc(Cl)cc3Cl)oc2ccn1-c1ccc2c(cnn2CCN2CCCC2)c1
50 to 52 °C	O=c1c2cc(-c3ccccn3)oc2ccn1-c1ccc2c(cnn2CCN2CCCC2)c1 (as salt: hydrochloride)
268 to 270 °C	O=c1c2cc(-c3ccc(Cl)cn3)oc2ccn1-c1ccc2c(cnn2CCN2CCCC2)c1 (as salt: hydrochloride) [Example 17, 2-(5-Chloropyridin-2-yl)-5-(1-(2-(pyrrolidin-1-yl)ethyl)-1H-indazol-5-yl)furo[3,2-c]pyridin-4(5H)-one dihydrochloride]
188 to 190 °C	O=c1c2cc(-c3cccnc3)oc2ccn1-c1ccc2c(cnn2CCN2CCCC2)c1 (as salt: hydrochloride) [Example 22, 2(Pyridin-3-yl)-5-(1-(2-(pyrrolidin-1-yl)ethyl)-1H-indazol-5-yl)furo[3,2-c]pyridin-4(5H)-one dihydrochloride]
266 to 268 °C	O=c1c2cc(-c3ccc(F)cn3)oc2ccn1-c1ccc2c(cnn2CCN2CCCC2)c1 (as salt: hydrochloride) [Example 23, 2-(5-Fluoropyridin-2-yl)-5-(1-(2-(pyrrolidin-1-yl)ethyl)-1H-indazol-5-yl)furo[3,2-c]pyridin-4(5H)-one dihydrochloride]
272 to 274 °C	O=c1c2cc(-c3ncccn3)oc2ccn1-c1ccc2c(cnn2CCN2CCCC2)c1 (as salt: hydrochloride) [Example 26, 2-(Pyrimidin-2-yl)-5-(1-(2-(pyrrolidin-1-yl)ethyl)-1H-indazol-5-yl)furo[3,2-c]pyridin-4(5H)-one Dihydrochloride]
